Here are results for one molecule from paper PMC12340639 (ACS Pharmacology & Translational Science, 2025).

The test system of the assay is ER-positive MCF7 human breast cancer cells. Put plainly: MCF7 cell proliferation assay. The following applies: MCF7, 120 h, read-out: Cell Proliferation EC50. It counts as cell-based.

pEC50: −log10 of the molar value.

Regarding `C[C@]12CC[C@@H]3c4ccc(O)cc4CC[C@H]3[C@@H]1CC[C@@H]2O` [E2, 17β-estradiol], the pEC50 is 11.49.
